Reference: PubChem BioAssay (NCI)
Several values for one entry are separate records, joined by “and”; a condition that tells them apart may be missing. Identical values can stand only once.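 Method: 48-hour compound exposure of cells in 96-well plates, five concentrations, linear interpolation of endpoints. GI50 = concentration required for 50% inhibition of growth. TGI: concentration producing complete growth inhibition.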

What was measured:
Experiment in all cases: NCI tumour cell line growth inhibition, 48 h
HL-60(TB) leukemia = system: HL-60(TB) leukemia
SK-OV-3 ovarian = system: SK-OV-3 ovarian
EKVX NSCLC = system: EKVX NSCLC
SR leukemia = system: SR leukemia
HCT-116 colon = system: HCT-116 colon
OVCAR-3 ovarian = system: OVCAR-3 ovarian
SNB-19 CNS = system: SNB-19 CNS
NCI-H522 lung = system: NCI-H522 lung
MALME-3M melanoma = system: MALME-3M melanoma
MDA-MB-435 = system: MDA-MB-435

## CCc1oc2ccccc2c1C(=O)c1cc(Br)c(O)c(Br)c1
HL-60(TB) leukemia
  TGI: 33.3 µM
SK-OV-3 ovarian
  TGI: > 100 µM
EKVX NSCLC
  TGI: 95.2 µM
SR leukemia
  TGI: 55.4 µM
HCT-116 colon
  TGI: 55.7 µM
OVCAR-3 ovarian
  TGI: 43.2 µM
SNB-19 CNS
  TGI: > 100 µM
NCI-H522 lung
  TGI: 43.1 µM
MALME-3M melanoma
  TGI: 43.2 µM
MDA-MB-435
  TGI: > 100 µM

## COc1cc2c(OC)c(c1)CCCC1=CC(=O)C=C(CCC2)C1=O
HL-60(TB) leukemia
  TGI: 24.6 µM
SK-OV-3 ovarian
  TGI: > 100 µM
EKVX NSCLC
  TGI: > 87.4 µM
SR leukemia
  TGI: > 56.5 µM
HCT-116 colon
  TGI: 38.1 µM
OVCAR-3 ovarian
  TGI: 55.1 µM
SNB-19 CNS
  TGI: > 100 µM
NCI-H522 lung
  TGI: 46.2 µM
MALME-3M melanoma
  TGI: 75.8 µM
MDA-MB-435
  TGI: 56.2 µM

## O=C(Nc1cc(Cl)ccc1O)c1cccc(NC2=C(Cl)C(=O)N(Cc3ccccc3)C2=O)c1
HL-60(TB) leukemia
  GI50: 15.9 µM
  TGI: 38.7 µM
SK-OV-3 ovarian
  GI50: 69.1 µM
  TGI: > 100 µM
EKVX NSCLC
  GI50: > 100 µM
  TGI: > 100 µM
SR leukemia
  GI50: 4.8 µM
  TGI: 22.8 µM
HCT-116 colon
  GI50: 17.2 µM
  TGI: 31 µM
OVCAR-3 ovarian
  GI50: 23.4 µM
  TGI: 54.4 µM
SNB-19 CNS
  GI50: 48.4 µM
  TGI: > 100 µM
NCI-H522 lung
  GI50: 11.2 µM
  TGI: 26.3 µM
MALME-3M melanoma
  GI50: 30.5 µM
  TGI: 86.4 µM
MDA-MB-435
  GI50: 18.7 µM
  TGI: 38.6 µM

## CCN(CC)CCCC(C)Nc1cnc(C(=O)Nc2cc(F)cc3cccnc23)cn1 (stereo not given)
HL-60(TB) leukemia
  TGI: 25.6 µM and 31.3 µM
SK-OV-3 ovarian
  GI50: 14 µM and 1.68 µM
  TGI: 27.7 µM and 3.68 µM
EKVX NSCLC
  GI50: 10.2 µM and 1.22 µM
  TGI: 22.1 µM and 2.51 µM
SR leukemia
  GI50: 2.66 µM and 1.6 µM
HCT-116 colon
  GI50: 2.7 µM and 0.35 µM
  TGI: 10.1 µM and 1.23 µM
OVCAR-3 ovarian
  GI50: 2.14 µM and 0.349 µM
  TGI: 6.79 µM and 1.23 µM
SNB-19 CNS
  GI50: 10.5 µM and 1.73 µM
  TGI: 22.8 µM and 3.14 µM
NCI-H522 lung
  GI50: 5.51 µM and 1.26 µM
  TGI: 19 µM and 2.9 µM
MALME-3M melanoma
  GI50: 1.77 µM and 0.983 µM
  TGI: 3.38 µM and 2.28 µM
MDA-MB-435
  GI50: 3.4 µM and 1.45 µM
  TGI: 12.8 µM and 3.43 µM

## Cc1cc2c(C(N)=O)cccc2n1-c1nc2c(c(NCc3ccccc3)n1)CCCN2
HL-60(TB) leukemia
  GI50: 0.228 µM
  TGI: 1.01 µM
SK-OV-3 ovarian
  GI50: 0.32 µM
  TGI: 0.813 µM
EKVX NSCLC
  GI50: 0.256 µM
  TGI: 0.63 µM
SR leukemia
  GI50: 0.117 µM
  TGI: 0.525 µM
HCT-116 colon
  GI50: 0.0831 µM
  TGI: 0.631 µM
OVCAR-3 ovarian
  GI50: 0.206 µM
  TGI: 0.41 µM
SNB-19 CNS
  GI50: 0.296 µM
  TGI: 0.765 µM
NCI-H522 lung
  GI50: 0.164 µM
  TGI: 0.359 µM
MALME-3M melanoma
  GI50: 0.178 µM
  TGI: 0.346 µM
MDA-MB-435
  GI50: 0.164 µM
  TGI: 0.322 µM

## O=c1[nH]nc2c3c(cccc13)NC(CN1Cc3ccccc3C1)=N2
HL-60(TB) leukemia
  GI50: 9.13 µM
  TGI: > 100 µM
SK-OV-3 ovarian
  GI50: 3.11 µM
  TGI: > 100 µM
EKVX NSCLC
  GI50: 3.92 µM
  TGI: > 100 µM
SR leukemia
  GI50: 5.13 µM
  TGI: > 100 µM
HCT-116 colon
  GI50: 6.77 µM
  TGI: > 100 µM
OVCAR-3 ovarian
  GI50: 5.64 µM
  TGI: > 100 µM
SNB-19 CNS
  GI50: 52.3 µM
  TGI: > 100 µM
NCI-H522 lung
  GI50: 2.77 µM
  TGI: > 100 µM
MALME-3M melanoma
  GI50: 49.1 µM
  TGI: > 100 µM
MDA-MB-435
  GI50: 4.39 µM
  TGI: > 100 µM

## Clc1cc(Cl)cc(N2N=C(c3cccc(Nc4ccncc4)c3)CC2c2ccc(Br)cc2)c1 (stereo not given)
HL-60(TB) leukemia
  GI50: 2.44 µM
  TGI: 6.08 µM
SK-OV-3 ovarian
  GI50: 2.01 µM
  TGI: 4.11 µM
EKVX NSCLC
  GI50: 1.6 µM
  TGI: 3.2 µM
SR leukemia
  GI50: 1.48 µM
  TGI: 3.68 µM
OVCAR-3 ovarian
  GI50: 1.72 µM
  TGI: 3.21 µM
SNB-19 CNS
  GI50: 1.63 µM
  TGI: 3.16 µM
NCI-H522 lung
  GI50: 1.88 µM
  TGI: 3.88 µM
MALME-3M melanoma
  GI50: 1.71 µM
  TGI: 3.5 µM
MDA-MB-435
  GI50: 1.61 µM
  TGI: 3 µM

## Nc1ncc(-c2ccc(C(F)(F)F)cc2)c(NC2CCCCCC2)n1
HL-60(TB) leukemia
  GI50: 21.4 µM
  TGI: 63.6 µM
SK-OV-3 ovarian
  GI50: > 100 µM
  TGI: > 100 µM
SR leukemia
  GI50: 13.2 µM
  TGI: 57.2 µM
HCT-116 colon
  GI50: 20.2 µM
  TGI: > 100 µM
OVCAR-3 ovarian
  GI50: 35.9 µM
  TGI: > 100 µM
SNB-19 CNS
  GI50: 47.4 µM
  TGI: > 100 µM
NCI-H522 lung
  GI50: 27.7 µM
  TGI: > 100 µM
MALME-3M melanoma
  GI50: 18.6 µM
  TGI: 81.8 µM
MDA-MB-435
  GI50: 35 µM
  TGI: > 100 µM

## Cc1nn2c(/C=C3/C(=O)Nc4ccc(Cl)cc43)c(-c3ccccc3)nc2s1
HL-60(TB) leukemia
  GI50: 28.8 µM
  TGI: > 100 µM
SK-OV-3 ovarian
  GI50: 2.25 µM
  TGI: 5.03 µM
SR leukemia
  GI50: 3.5 µM
  TGI: > 100 µM
HCT-116 colon
  GI50: 1.9 µM
  TGI: 4.61 µM
OVCAR-3 ovarian
  GI50: 2.79 µM
  TGI: 13 µM
SNB-19 CNS
  GI50: 9.54 µM
  TGI: 34.2 µM
NCI-H522 lung
  GI50: 4.26 µM
  TGI: 17.9 µM
MALME-3M melanoma
  GI50: 2.17 µM
  TGI: 5.57 µM
MDA-MB-435
  GI50: 3.24 µM
  TGI: 13.5 µM

## CN1CCN(Cc2ccc(NC(=O)c3[nH]ncc3Nc3ncnc4c3CCC4)cc2)CC1
HL-60(TB) leukemia
  GI50: 0.728 µM
  TGI: 3.29 µM
SK-OV-3 ovarian
  GI50: 0.185 µM
  TGI: 17.5 µM
EKVX NSCLC
  GI50: 2.38 µM
  TGI: 6.6 µM
SR leukemia
  GI50: 0.438 µM
  TGI: 3.05 µM
HCT-116 colon
  GI50: 0.454 µM
  TGI: 11.4 µM
OVCAR-3 ovarian
  GI50: 1.09 µM
  TGI: 4.6 µM
SNB-19 CNS
  GI50: 2.87 µM
  TGI: 14.8 µM
NCI-H522 lung
  GI50: 1.54 µM
  TGI: 8.79 µM
MALME-3M melanoma
  GI50: 3.26 µM
  TGI: 8.06 µM
MDA-MB-435
  GI50: 1.8 µM
  TGI: 12.3 µM

## COC[C@H]1OC(=O)c2coc3c2[C@@]1(C)C1=C(C3=O)[C@@H]2CCC(=O)[C@@]2(C)C[C@H]1OC(C)=O
HL-60(TB) leukemia
  GI50: 2.98 µM
  TGI: 53.7 µM
SK-OV-3 ovarian
  GI50: 2.22 µM
  TGI: 23.5 µM
EKVX NSCLC
  TGI: > 100 µM
SR leukemia
  TGI: 31.3 µM
HCT-116 colon
  TGI: > 100 µM
OVCAR-3 ovarian
  TGI: > 78.1 µM
SNB-19 CNS
  TGI: > 100 µM
NCI-H522 lung
  TGI: > 71.9 µM
MALME-3M melanoma
  GI50: 1.44 µM
  TGI: 39.3 µM
MDA-MB-435
  TGI: > 54.3 µM

## CC(=O)Oc1cccc2c1C(=O)C(Br)(Br)CCC2
HL-60(TB) leukemia
  TGI: 6.51 µM
SK-OV-3 ovarian
  TGI: 24.9 µM
EKVX NSCLC
  TGI: 26.7 µM
SR leukemia
  TGI: 8.19 µM
HCT-116 colon
  TGI: 9.66 µM
OVCAR-3 ovarian
  TGI: 13.3 µM
SNB-19 CNS
  TGI: 25.2 µM
NCI-H522 lung
  TGI: 4.55 µM
MALME-3M melanoma
  TGI: 5.59 µM
MDA-MB-435
  TGI: 13.4 µM

## Cn1c2ccccc2c2nnc(N/N=C/c3ccccn3)nc21
HL-60(TB) leukemia
  GI50: 0.222 µM
  TGI: 3.85 µM
SK-OV-3 ovarian
  GI50: 0.421 µM
  TGI: 21.9 µM
EKVX NSCLC
  GI50: 0.293 µM
  TGI: > 32 µM
SR leukemia
  GI50: 0.23 µM
  TGI: > 100 µM
HCT-116 colon
  GI50: 0.349 µM
  TGI: > 38.4 µM
OVCAR-3 ovarian
  GI50: 0.489 µM
  TGI: > 33 µM
SNB-19 CNS
  GI50: 0.412 µM
  TGI: > 100 µM
NCI-H522 lung
  GI50: 0.574 µM
  TGI: 33 µM
MALME-3M melanoma
  GI50: 0.334 µM
  TGI: 2.26 µM
MDA-MB-435
  GI50: 0.459 µM
  TGI: > 54.6 µM
